According to paper PMC9228270, “Design, Synthesis, In Silico Studies and Inhibitory Activity towards Bcr-Abl, BTK and FLT3-ITD of New 2,6,9-Trisubstituted Purine Derivatives as Potential Agents for the Treatment of Leukaemia” (Pharmaceutics, 2022):
Where “and” joins values, the source holds several entries; their conditions need not be identical. Identical values can stand only once. Like-named read-outs stand apart in the source and are kept apart here.

Tests used:
[1] = molecular target: T1, FLT3-ITD (Homo sapiens, UniProt P36888, ITD); test: Recombinant kinase radioassay, FLT3-ITD; assay type: biochemical
T1 sequence (P36888 27-993): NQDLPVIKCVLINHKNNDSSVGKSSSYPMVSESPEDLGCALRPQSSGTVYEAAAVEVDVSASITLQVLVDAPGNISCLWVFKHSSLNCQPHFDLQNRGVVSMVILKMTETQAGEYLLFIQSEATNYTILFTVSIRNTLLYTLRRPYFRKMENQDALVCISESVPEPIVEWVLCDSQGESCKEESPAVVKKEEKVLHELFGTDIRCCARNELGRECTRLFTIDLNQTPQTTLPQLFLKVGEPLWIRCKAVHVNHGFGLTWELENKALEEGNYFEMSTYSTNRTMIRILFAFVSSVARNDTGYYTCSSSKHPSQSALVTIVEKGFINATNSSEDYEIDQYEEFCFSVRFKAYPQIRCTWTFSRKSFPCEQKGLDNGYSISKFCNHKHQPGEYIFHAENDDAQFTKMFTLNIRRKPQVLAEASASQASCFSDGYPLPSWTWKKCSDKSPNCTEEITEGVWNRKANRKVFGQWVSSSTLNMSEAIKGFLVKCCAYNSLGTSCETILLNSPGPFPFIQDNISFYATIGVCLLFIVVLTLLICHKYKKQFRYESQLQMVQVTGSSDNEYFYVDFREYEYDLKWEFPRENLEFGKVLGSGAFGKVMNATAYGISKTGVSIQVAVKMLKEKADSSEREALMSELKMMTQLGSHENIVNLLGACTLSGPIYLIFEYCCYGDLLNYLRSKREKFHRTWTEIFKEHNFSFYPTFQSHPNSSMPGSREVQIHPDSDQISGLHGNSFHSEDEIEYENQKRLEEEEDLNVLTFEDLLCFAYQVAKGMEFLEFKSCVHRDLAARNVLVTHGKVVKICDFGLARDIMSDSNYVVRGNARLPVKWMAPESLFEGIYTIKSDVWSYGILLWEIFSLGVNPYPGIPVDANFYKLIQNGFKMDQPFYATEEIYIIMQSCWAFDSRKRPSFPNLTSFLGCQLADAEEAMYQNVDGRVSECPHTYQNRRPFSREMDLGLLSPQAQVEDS
Procedure: (§1) Recombinant kinase inhibition was measured using standard radioassay. Bcr-Abl1 and Cdk-2/cyclin E kinases were produced in-house, FLT3-ITD and BTK were purchased from ProQinase. The kinases were assayed with suitable substrates (500 µM peptide […] for Abl, 1 mg/mL histone H1 for Cdk-2, 100 µM poly (Glu:Tyr; 4:1)) in the presence of ATP (1 µM for Bcr-Abl, 15 µM for Cdk-2 and BTK), 0.05 µCi [γ-^33P]ATP and the test compound in reaction buffer (60 mM HEPES-NaOH, pH 7.5, 3 mM MgCl2, 3 mM MnCl2, 3 µM Na orthovanadate, 1.2 mM DTT, 2.5 µg/50 µL PEG20.000). The reactions were stopped by adding 3% aq. H3PO4. P-81 phosphocellulose (Whatman) was used to separate phosphorylated substrates. Kinase activity was quantified using a FLA-7000 digital image analyser.

[2] = molecular target: T2, BTK (Homo sapiens, UniProt Q06187); test: Recombinant kinase radioassay, BTK; assay type: biochemical
T2 construct: purchased ProQinase
Procedure: as §1

[3] = tested on: K562; test: Cytotoxicity assay (resazurin), K562; assay type: cell-based; details: Homo sapiens, 72 h, three independent experiments, range 0.1 to 25 µM
Procedure: (§2) Cytotoxicity assays for the purines were quantified using the resazurin method, a dye to measure redox reactions occurring in the mitochondria of live cells. The cells were treated by tested compounds (in triplicate, six different doses) for 72 h.

[4] = molecular target: Bcr-Abl1 (Homo sapiens, UniProt P00519); test: Recombinant kinase radioassay, Abl; assay type: biochemical; details: ATP 1 µM, at least three independent experiments, range 0.01–100 µM
Procedure: as §1

[5] = molecular target: T3, Cdk-2/cyclin E (Homo sapiens, UniProt P24941); test: Recombinant kinase radioassay, Cdk-2/cyclin E; assay type: biochemical; details: ATP 15 µM, at least three independent experiments, range 0.01–100 µM
T3 construct: made in house
Procedure: as §1

[6] = tested on: HL-60; test: Cytotoxicity assay (resazurin), HL-60; assay type: cell-based; details: Homo sapiens, 72 h, three independent experiments, range 0.1 to 25 µM
Procedure: as §2

[7] = tested on: CEM; test: Cytotoxicity assay (resazurin), CEM; assay type: cell-based; details: Homo sapiens, CCRF-CEM, 72 h, three independent experiments, range 0.1 to 25 µM
Procedure: as §2

[8] = tested on: Ramos; test: Cytotoxicity assay (resazurin), Ramos; assay type: cell-based; details: Homo sapiens, 72 h, three independent experiments, range 0.1 to 25 µM
Procedure: as §2

[9] = tested on: MV4-11; test: Cytotoxicity assay (resazurin), MV4-11; assay type: cell-based; details: Homo sapiens, 72 h, three independent experiments, range 0.1 to 25 µM
Procedure: as §2

[10] = -log IC50 in molar concentration, Table S3, read-out: Experimental pIC50, CoMFA FLT3 (converted)
[11] = -log IC50 in molar concentration, Table S3, read-out: Experimental pIC50, CoMFA BTK (converted)
[12] = recombinant kinase, radioassay, ATP 15 µM, at least three independent experiments, range 0.01–100 µM, read-out: IC50 BTK
[13] = recombinant kinase, radioassay, at least three independent experiments, range 0.01–100 µM, read-out: IC50 FLT3-ITD

T2 sequence (Q06187 whole entry): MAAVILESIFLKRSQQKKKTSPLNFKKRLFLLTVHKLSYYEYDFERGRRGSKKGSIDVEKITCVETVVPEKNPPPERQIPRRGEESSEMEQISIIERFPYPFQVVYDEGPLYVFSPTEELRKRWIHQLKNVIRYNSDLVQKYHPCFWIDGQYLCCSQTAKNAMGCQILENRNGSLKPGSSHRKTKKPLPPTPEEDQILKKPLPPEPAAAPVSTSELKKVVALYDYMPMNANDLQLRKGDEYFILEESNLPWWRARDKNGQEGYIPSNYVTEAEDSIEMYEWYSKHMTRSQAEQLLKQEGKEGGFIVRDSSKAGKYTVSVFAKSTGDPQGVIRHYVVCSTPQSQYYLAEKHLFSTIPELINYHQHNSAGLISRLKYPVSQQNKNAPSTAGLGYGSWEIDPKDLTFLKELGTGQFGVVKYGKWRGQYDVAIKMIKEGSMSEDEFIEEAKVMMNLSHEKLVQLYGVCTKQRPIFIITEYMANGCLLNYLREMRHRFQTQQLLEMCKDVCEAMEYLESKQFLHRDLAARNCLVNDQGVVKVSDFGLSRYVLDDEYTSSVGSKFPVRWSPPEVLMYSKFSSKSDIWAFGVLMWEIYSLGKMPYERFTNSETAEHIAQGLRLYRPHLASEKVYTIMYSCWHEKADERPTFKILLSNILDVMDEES
Bcr-Abl1, sequence (P00519 27-1130): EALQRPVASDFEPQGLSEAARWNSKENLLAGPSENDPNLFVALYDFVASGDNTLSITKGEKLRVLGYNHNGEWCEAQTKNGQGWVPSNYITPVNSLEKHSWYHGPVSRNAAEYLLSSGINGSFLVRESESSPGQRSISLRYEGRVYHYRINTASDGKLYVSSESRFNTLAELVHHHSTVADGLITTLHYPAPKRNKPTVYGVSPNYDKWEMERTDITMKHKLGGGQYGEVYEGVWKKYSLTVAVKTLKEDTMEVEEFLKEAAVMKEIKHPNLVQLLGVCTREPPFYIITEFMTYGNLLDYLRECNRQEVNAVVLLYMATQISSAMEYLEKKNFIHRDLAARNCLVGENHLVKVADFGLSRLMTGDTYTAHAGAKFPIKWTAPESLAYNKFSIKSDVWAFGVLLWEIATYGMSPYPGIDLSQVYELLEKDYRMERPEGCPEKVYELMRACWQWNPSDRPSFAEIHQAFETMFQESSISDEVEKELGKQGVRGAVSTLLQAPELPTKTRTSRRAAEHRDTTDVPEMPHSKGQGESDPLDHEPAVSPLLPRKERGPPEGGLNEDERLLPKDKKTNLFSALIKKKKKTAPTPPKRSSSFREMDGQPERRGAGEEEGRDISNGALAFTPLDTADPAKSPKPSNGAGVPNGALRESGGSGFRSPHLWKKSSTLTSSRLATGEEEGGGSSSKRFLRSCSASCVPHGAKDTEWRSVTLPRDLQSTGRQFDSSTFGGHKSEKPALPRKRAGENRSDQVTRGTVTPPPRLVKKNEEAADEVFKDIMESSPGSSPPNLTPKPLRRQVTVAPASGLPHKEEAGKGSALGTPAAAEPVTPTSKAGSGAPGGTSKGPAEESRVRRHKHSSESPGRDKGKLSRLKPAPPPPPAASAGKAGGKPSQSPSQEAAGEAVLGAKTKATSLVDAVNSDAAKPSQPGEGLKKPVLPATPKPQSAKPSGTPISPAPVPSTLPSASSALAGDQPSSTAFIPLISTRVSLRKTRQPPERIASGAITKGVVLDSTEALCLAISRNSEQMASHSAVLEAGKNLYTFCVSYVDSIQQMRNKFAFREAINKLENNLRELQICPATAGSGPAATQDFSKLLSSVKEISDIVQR

SMILES	IC50 [1, 10]	IC50 [2, 11]	IC50 [4]	IC50 [2, 12]	IC50 [5]	melting point	IC50 [1, 13]	GI50 [3]	GI50 [6]	GI50 [7]	GI50 [8]	GI50 [9]
Clc1nc(Cl)c2[nH]cnc2n1 [Compound 1]	19.4 µM	14.7 µM										
O=C(Cl)c1ccc([N+](=O)[O-])cc1 [Compound 6]	2.32 µM	4.12 µM										
CN1CCN(C(=O)c2ccc(N)cc2)CC1 [Compound 7]	1.25 µM	1.36 µM										
Clc1nc(Cl)c2cc[nH]c2n1 [Compound 9]	0.534 µM	0.938 µM										
Clc1nc(Cl)c2ccn(CC3CC3)c2n1 [Compound 10]	0.367 µM	0.912 µM										
Clc1nc(Nc2ccccc2)c2ccn(CC3CC3)c2n1 [Compound 11]	1.16 µM	1.16 µM										

The next lines start with results.

IC50 [1, 10]	IC50 [2, 11]	IC50 [4]	IC50 [2, 12]	IC50 [5]	melting point	IC50 [1, 13]	SMILES	GI50 [3]	GI50 [6]	GI50 [7]	GI50 [8]	GI50 [9]
		4.19 ± 0.83 µM	14.7 ± 1.48 µM	14 ± 2.33 µM	149 to 152 °C		CN1CCN(c2ccc(Nc3nc(Nc4ccccc4F)c4ncn(CC5CC5)c4n3)cc2)CC1 [Compound 4a, 9-(Cyclopropylmethyl)-N^6-(2-fluorophenyl)-N^2-(4-(4-methylpiperazin-1-yl)phenyl)-9H-purine-2,6-diamine]	21.3 ± 0.63 µM	1.82 ± 0.35 µM	17.1 ± 0.4 µM	15.6 ± 0.88 µM	6.47 ± 1.82 µM
		0.12 ± 0.03 µM	1.28 ± 0.18 µM	20 ± 2.07 µM	152 to 153 °C	1.12 µM	CN1CCN(c2ccc(Nc3nc(Nc4cccc(Cl)c4)c4ncn(CC5CC5)c4n3)cc2)CC1 [Compound 4b, N^6-(3-Chlorophenyl)-9-(cyclopropylmethyl)-N^2-(4-(4-methylpiperazin-1-yl)phenyl)-9H-purine-2,6-diamine]	1.99 ± 0.82 µM	1.93 ± 1.05 µM	19.1 ± 1.07 µM	10.6 ± 3.08 µM	1.94 ± 0.16 µM
		0.1 µM	1.3 ± 0.02 µM	22.9 ± 2.08 µM	135 to 137 °C	1.5 µM	Cc1cccc(Nc2nc(Nc3ccc(N4CCN(C)CC4)cc3)nc3c2ncn3CC2CC2)c1 [Compound 4c, 9-(Cyclopropylmethyl)-N^2-(4-(4-methylpiperazin-1-yl)phenyl)-N^6-(m-tolyl)-9H-purine-2,6-diamine]	2.86 ± 0.76 µM	9.79 ± 0.87 µM	16.4 ± 0.36 µM	12.5 ± 0.48 µM	1.42 ± 0.23 µM
		1.78 ± 0.07 µM	22.7 ± 2.88 µM	15.5 ± 1.7 µM	134 to 135 °C	1.8 µM	CN1CCN(c2ccc(Nc3nc(Nc4cccc(C(F)(F)F)c4)c4ncn(CC5CC5)c4n3)cc2)CC1 [Compound 4d, 9-(Cyclopropylmethyl)-N^2-(4-(4-methylpiperazin-1-yl)phenyl)-N^6-(3-(trifluoromethyl)phenyl)-9H-purine-2,6-diamine]	4.51 ± 0.36 µM	0.72 ± 0.16 µM	23.78 ± 0.08 µM	3.83 ± 0.1 µM	2.84 ± 0.29 µM
		0.42 ± 0.1 µM	4.12 ± 0.9 µM	47.7 ± 19.4 µM	161 to 162 °C	2.32 µM	CN1CCN(c2ccc(Nc3nc(Nc4cccc(OC(F)(F)F)c4)c4ncn(CC5CC5)c4n3)cc2)CC1 [Compound 4e, 9-(Cyclopropylmethyl)-N^2-(4-(4-methylpiperazin-1-yl)phenyl)-N^6-(3-(trifluoromethoxy)phenyl)-9H-purine-2,6-diamine]	5.18 ± 1.68 µM	1.4 ± 0.13 µM	19.5 ± 0.61 µM	12.84 ± 0.03 µM	2.88 ± 0.01 µM
		0.07 ± 0.01 µM	1.43 ± 0.29 µM	23.6 ± 1.15 µM		0.93 µM	CN1CCN(c2ccc(Nc3nc(Nc4cccc(C#N)c4)c4ncn(CC5CC5)c4n3)cc2)CC1 [Compound 4f, 3-((9-(Cyclopropylmethyl)-2-((4-(4-methylpiperazin-1-yl)phenyl)amino)-9H-purin-6-yl)amino)benzonitrile]	3.68 ± 0.78 µM	1.56 ± 0.88 µM		5.86 ± 3.64 µM	1.05 ± 0.1 µM
		0.04 ± 0.01 µM	1.16 ± 0.18 µM	> 50 µM		1.16 µM	CCOC(=O)c1ccc(Nc2nc(Nc3ccc(N4CCN(C)CC4)cc3)nc3c2ncn3CC2CC2)cc1 [Compound 4k, Ethyl-4-((9-(cyclopropylmethyl)-2-((4-(4-methylpiperazin-1-yl)phenyl)amino)-9H-purin-6-yl)amino)benzoate]	2.7 ± 1.31 µM	1.93 ± 0.17 µM	13.9 ± 1.12 µM	12.3 ± 1.58 µM	2.43 ± 0.59 µM
		2.28 ± 0.8 µM	1.89 ± 0.17 µM	62.5 ± 15 µM		0.79 µM	CC(C)CCn1cnc2c(Nc3ccc(F)c(F)c3)nc(Nc3ccc(N4CCN(C)CC4)cc3)nc21 [Compound 5c, N^6-(3,4-Difluorophenyl)-9-isopentyl-N^2-(4-(4-methylpiperazin-1-yl)phenyl)-9H-purine-2,6-diamine]	9.4 ± 0.78 µM	1.59 ± 0.47 µM	16.8 ± 3.34 µM	8.87 ± 0.94 µM	1.43 ± 0.56 µM
		1.36 ± 0.5 µM	0.93 ± 0.14 µM	20.8 ± 3.18 µM		1.02 µM	CCCCCn1cnc2c(Nc3ccc(F)c(F)c3)nc(Nc3ccc(N4CCN(C)CC4)cc3)nc21 [Compound 5f, N^6-(3,4-Difluorophenyl)-N^2-(4-(4-methylpiperazin-1-yl)phenyl)-9-pentyl-9H-purine-2,6-diamine]	> 25 µM	3.61 ± 1.02 µM	> 25 µM	> 25 µM	1.61 ± 0.63 µM
		34 ± 1.63 µM	< 0.58 µM and 0.46 µM	47.3 ± 31.6 µM		2.74 µM	CCCCCCn1cnc2c(Nc3ccc(F)c(F)c3)nc(Nc3ccc(N4CCN(C)CC4)cc3)nc21 [Compound 5i, N^6-(3,4-Difluorophenyl)-9-hexyl-N^2-(4-(4-methylpiperazin-1-yl)phenyl)-9H-purine-2,6-diamine]	> 25 µM	3.91 ± 0.07 µM	> 25 µM	> 25 µM	3.86 ± 1.08 µM
		84.5 ± 5.9 µM	0.58 ± 0.33 µM	32.2 ± 1.33 µM		> 20 µM	CCCCCCCCn1cnc2c(Nc3ccc(F)c(F)c3)nc(Nc3ccc(N4CCN(C)CC4)cc3)nc21 [Compound 5l, N^6-(3,4-Difluorophenyl)-N^2-(4-(4-methylpiperazin-1-yl)phenyl)-9-octyl-9H-purine-2,6-diamine]	11.8 ± 2.19 µM	1.51 ± 1.49 µM	> 25 µM	18.9 ± 2.11 µM	16.3 ± 4.99 µM
			1.72 ± 0.19 µM		150 to 151 °C	1.6 µM	CN1CCN(C(=O)c2ccc(Nc3nc(Nc4cccc(F)c4)c4ncn(CC5CC5)c4n3)cc2)CC1 [Compound 8b, (4-((9-(Cyclopropylmethyl)-6-((3-fluorophenyl)amino)-9H-purin-2-yl)amino)phenyl)(4-methylpiperazin-1-yl)methanone]	4.91 ± 0.01 µM	1.08 ± 0.1 µM	20.2 ± 3.73 µM	7.07 ± 0.32 µM	1.48 ± 0.54 µM
